Test results taken from patent publication US7429474B2, “2-O sulfatase compositions and methods of analyzing therewith” (Massachusetts Institute of Technology, priority 2003, dated 2008).

System: Δ 4,5 glycuronidase
Experiment: Δ 4,5 glycuronidase activity (loss of UV absorption at 232 nm)
Type: biochemical, F. heparinum
Details: 2 mM substrate, 250 nM Δ 4,5 enzyme alone, 30° C.
Procedure: The substrate-product relationship between the two enzymes was examined by directly measuring Δ 4,5 glycuronidase activity either before or following the addition of recombinant 2-O sulfatase. Reactions were carried out at 30° C. and included 50 mM MES, pH 6.5, 100 mM NaCl, and 2 mM ΔU2SHNS in a 100 μL reaction volume. In these experiments, 250 nM Δ 4,5 glycuronidase and 25 nM 2-O ΔN^1-24 were sequentially added as follows: Δ 4,5 alone, Δ 4,5 followed by 2-O sulfatase, or 2-O sulfatase followed by Δ 4,5.
We hypothesized that, an obligatory substrate-product relationship between the 2-O sulfatase and the Δ 4,5 glycuronidase may exist. We examined a possible kinetic relationship between these two enzymes by looking at their sequential action (FIG. 7). In this experiment, Δ 4,5 glycuronidase activity was measured directly either […] or following the addition of the recombinant 2-O sulfatase using the disaccharide substrate ΔU2SHNS. […] In the reciprocal experiment (i.e., whereby the 2-O sulfatase was added second), we observed an initial lag in Δ 4,5 activity. This lag was followed by a linear Δ 4,5 activity, albeit at a slower rate than in the case where the 2-O sulfatase was added first. The observed delay in activity was presumably due to the prerequisite 2-O desulfation of the substrate which must occur prior to being acted on by the glycuronidase.

O=C(O)C1=C[C@H](O)[C@@H](OS(=O)(=O)O)[C@H](O[C@H]2[C@H](O)[C@@H](NS(=O)(=O)O)C(O)O[C@@H]2CO)O1 (stereo partly shown) [ΔU2SHNS]
glycuronidase-mediated hydrolysis: completely refractory
